Structures can show the parent of a compound that is named as a salt. Where two headings read alike, the source gives them in different places.
Key:
[1] = molecular target: PDK1 (Homo sapiens (Human), UniProt O15530); assay: PDK1 kinase assay (coupled PDK1/AKT/FAM-crosstide assay, IMAP fluorescence polarization); assay type: biochemical
Outline: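 PDK1 activity is measured indirectly through activation of a PIFtide-fused AKT2 construct that phosphorylates FAM-crosstide (100 nM). The reaction uses 0.75 nM PDK1, 40 μM ATP, 30 min, 25° C, with IMAP polarization detection.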

[2] = test system: phospho-akt (Thr308) in PC-3 cells; assay: Inhibition of phospho-akt (Thr308) in PC-3 cells, MSD phospho-akt 308 ELISA kit; assay type: cell-based; conditions: Homo sapiens, 2 hours, no serum, read-out: EC50
Outline: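 Electrochemiluminescent MSD ELISA of Thr308-phosphorylated Akt after a 2 h serum-free compound exposure of PC-3 cells (15,000/well, plated overnight). Controls: DMSO (high), 5 μM wortmannin (low). Lysate binding overnight at 4 °C; detection antibody 1 h at room temperature.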

[3] = inhibition of P308 Akt in PC-3 cells using MSD
[4] = inhibition of phospo-PDK1 in vitro
[5] = inhibition of P308 Akt in PC-3 cells, MSD

Sequence of PDK1 (O15530 51-359): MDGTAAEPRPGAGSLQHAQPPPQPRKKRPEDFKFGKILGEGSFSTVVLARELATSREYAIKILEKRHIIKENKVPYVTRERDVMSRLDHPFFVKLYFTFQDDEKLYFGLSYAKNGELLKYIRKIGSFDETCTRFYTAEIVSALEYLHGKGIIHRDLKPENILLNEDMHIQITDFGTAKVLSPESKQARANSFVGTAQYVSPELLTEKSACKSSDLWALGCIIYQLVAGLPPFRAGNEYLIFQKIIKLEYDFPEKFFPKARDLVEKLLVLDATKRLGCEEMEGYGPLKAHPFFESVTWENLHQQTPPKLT

Row | SMILES | IC50 ([1]; inhibition of PDK1 in vitro) [nM] | EC50 [2, 3] [nM] | IC50 [1, 4] [nM] | EC50 [2, 5] [nM]
1 | C[C@H](NC(=O)c1cc(C#N)cnc1NCc1ccc(-c2cnc(N)c(O[C@H]3CCC[C@@H]3N)n2)cc1)c1ccc(F)cc1 [Example 168, 2-{4-[5-Amino-6-((1S,2S)-2-amino-cyclopentyloxy)-pyrazin-2-yl]-benzylamino}-5-cyano-N-[(S)-1-(4-fluoro-phenyl)-ethyl]-nicotinamide] | < 100 | 1000 to 10000 |  | 
2 | O=C(NCc1ccc(F)c(F)c1)c1cccnc1NCc1ccc(-c2cnc3[nH]ncc3c2)cc1 [Example 2.35, 2-(4-(1H-pyrazolo[3,4-b]pyridin-5-yl)benzylamino)-N-(3,4-difluorobenzyl)nicotinamide] |  |  | < 100 | < 1000
3 | Nc1ncc(-c2ccc(CNc3ncc(C(F)(F)F)cc3C(=O)Nc3ccc(F)cc3)cc2)nc1CCC1CCNC1 (stereo not drawn) [Example 76, 2-{4-[5-Amino-6-(2-pyrrolidin-3-yl-ethyl)-pyrazin-2-yl]-benzylamino}-N-(4-fluoro-phenyl)-5-trifluoromethyl-nicotinamide] | < 100 | < 1000 |  | 
4 | Nc1ncnc2ccc(-c3ccc(CNc4ncc(S(=O)(=O)NCCO)cc4C(=O)NCc4ccc(F)c(F)c4)s3)cc12 [Example 343, 2-((5-(4-aminoquinazolin-6-yl)thiophen-2-yl)methyl)amino)-(N-(3,4-difluorobenzyl)-5-(N-(2-hydroxyethyl)sulfamoyl)nicotinamide] | < 100 | < 1000 |  | 
5 | Nc1ncnc2[nH]cc(-c3ccc(CNc4ncc(C(F)(F)F)cc4C(=O)NCc4ccc(F)c(F)c4)cc3)c12 [Example 330, 2-[4-(4-Amino-7H-pyrrolo [2,3-d]pyrimidin-5-yl)-benzylamino]-N-(3,4-difluoro-benzyl)-5-trifluoromethyl-nicotinamide] | < 100 | < 1000 |  | 
6 | C[C@H](NC(=O)c1nc(C#N)cnc1NCc1ccc(-c2cnc3[nH]ncc3c2)cc1)c1ccc(F)c(F)c1 [Example 390, 6-Cyano-3-[4-(1H-pyrazolo [3,4-b]pyridin-5-yl)-benzylamino]-pyrazine-2-carboxylic acid [(S)-1-(3,4-difluoro-phenyl)-ethyl]-amide] | < 100 | < 1000 |  | 
7 | C[C@H](NC(=O)c1nccnc1NCc1ccc(-c2ccc3ncnc(N)c3c2)s1)c1ccc(F)cc1 [Example 3.70, 3-({[5-(4-aminoquinazolin-6-yl)thiophen-2-yl]methyl}amino)-N-[(1S)-1-(4-fluorophenyl)ethyl] pyrazine-2-carboxamide (TFA salt)] |  |  | < 100 | 1000 to 10000
8 | C[C@H](NC(=O)c1cc(C#N)cnc1NCc1ccc(-c2cnc(N)c(C(=O)NCCN3CCOCC3)n2)cc1)c1ccc(F)cc1 [Example 214, (S)-3-amino-6-(4-((5-cyano-3-(1-(4-fluorophenyl)ethylcarbamoyl)pyridin-2-ylamino)methyl)phenyl)-N-(2-morpholinoethyl) pyrazine-2-carboxamide] | < 100 | < 1000 |  | 
9 | C#Cc1cnc(NCc2ccc(-c3ccc4ncnc(N)c4c3)s2)c(C(=O)NCc2ccc(F)c(F)c2)c1 [Ex. 8.10, 2-(((5-(4-aminoquinazolin-6-yl)thiophen-2-yl)methyl)amino)-N-(3,4-difluorobenzyl)-5-ethynylnicotinamide] |  |  | < 100 | < 1000
10 | Nc1n[nH]c2ncc(-c3ccc(CNc4ncc(C(F)(F)F)cc4C(=O)NCc4ccc(F)c(F)c4)cc3)cc12 [Example 132, 2-(4-(3-amino-1H-pyrazolo [3,4-b]pyridin-5-yl)benzylamino)-N-(3,4-difluorobenzyl)-5-(trifluoromethyl) nicotinamide] | < 100 | < 1000 |  | 
11 | N#Cc1cnc(NCc2ccc(-c3cnc4[nH]nc(N)c4c3)cc2)c(C(=O)NCc2ccc(F)cc2)n1 [Example 33, 3-(4-(3-amino-1H-pyrazolo[3,4-b]pyridin-5-yl)benzylamino)-6-cyano-N-(4-fluorobenzyl) pyrazine-2-carboxamide] |  |  | < 100 | < 1000
12 | Nc1ncnc2ccc(-c3ccc(CNc4ncc(F)cc4C(=O)NCc4ccc(F)c(F)c4)s3)cc12 [Ex. 7.3.1] |  |  | < 100 | < 1000
13 | CC(C)Oc1cc(CNc2ncccc2C(=O)NC(C)(C)C)cc(-c2c[nH]c3ncc(C(=O)NC4CC4)cc23)c1 [Example 4.1.15, 3-[3-({[(3-tert-butylcarbamoyl)pyridin-2-yl]amino}methyl)-5-(propan-2-yloxy)phenyl]-N-cyclopropyl-1H-pyrrolo[2,3-b] pyridine-5-carboxamide] |  |  | > 5000 | 1000 to 10000
14 | C[C@H](NC(=O)c1cc(S(C)(=O)=O)cnc1NCc1ccc(-c2ccc3ncnc(N)c3c2)s1)c1ccc(F)c(F)c1 |  |  | 100 to 1000 | < 1000
15 | C[C@H](NC(=O)c1cc(C#N)cnc1NCc1ccc(-c2ccc(C#N)nc2)cc1)c1ccc(F)cc1 [Example 111, (S)-5-cyano-2-(4-(6-cyanopyridin-3-yl)benzylamino)-N-(1-(4-fluorophenyl)ethyl)nicotinamide] | > 5000 | > 10000 |  | 
16 | CC(C)(C)Nc1ncnc2ccc(-c3ccc(CNc4ncccc4C(=O)NCc4ccc(F)c(F)c4)s3)cc12 [Example 4.23, N-(3,4-difluorobenzyl)-2-(((5-(4-(tert-butylamino)quinazolin-6-yl)thiophen-2-yl)methyl)amino) nicotinamide] |  |  | 1000 to 5000 | > 10000
17 | Cn1ccc(NC(=O)c2cc(C(F)(F)F)cnc2NCc2ccc(-c3cnc4[nH]nc(N)c4c3)cc2)n1 [Example 307, 2-(4-(3-amino-1H-pyrazolo [3,4-b]pyridin-5-yl)benzylamino)-N-(1-methyl-1H-pyrazol-3-yl)-5-(trifluoromethyl)nicotinamide] | 1000 to 5000 | 1000 to 10000 |  | 
18 | O=C(NCc1ccc(F)c(F)c1)c1cccnc1NCc1csc(-c2c[nH]c3ncncc23)n1 [Ex. 6.13, N-(3,4-difluorobenzyl)-2-({[2-(7H-pyrrolo[2,3-d]pyrimidin-5-yl)-1,3-thiazol-4-yl]-methyl}amino) pyridine-3-carboxamide] |  |  | 100 to 1000 | > 10000
19 | C[C@@H](Nc1ncc(C(F)(F)F)cc1C(=O)Nc1ccc(F)cc1)c1ccc(-c2cn(C)c3ncnc(N)c23)cc1 [Example 403, (R)-2-(1-(4-(4-amino-7-methyl-7H-pyrrolo[2,3-d]pyrimidin-5-yl)phenyl)ethylamino)-N-(4-fluoro-phenyl)-5-(trifluoromethyl) nicotinamide] | < 100 | 1000 to 10000 |  | 
20 | CN(C)CCCNC(=O)c1cnc(NCc2ccc(-c3ccc4ncnc(N)c4c3)s2)c(C(=O)NCc2ccc(F)c(F)c2)c1 [Example 7.24.5, 2-({[5-(4-aminoquinazolin-6-yl)thiophen-2-yl]methyl}amino)-N^3-(3,4-difluorobenzyl)-N^5-[3-(dimethylamino)propyl] pyridine-3,5-dicarboxamide] |  |  | 100 to 1000 | > 10000
21 | C[C@H](NC(=O)c1cc(C#N)cnc1NCc1ccc(-c2cnc(N)c(CCC(C)(C)N)n2)cc1)c1ccc(F)cc1 [Example 82, 2-{4-[5-Amino-6-(3-amino-3-methyl-butyl)-pyrazin-2-yl]-benzylamino}-5-cyano-N-[(S)-1-(4-fluoro-phenyl)-ethyl]-nicotinamide] | < 100 | < 1000 |  | 

From patent US10030016B2 (Sunesis Pharmaceuticals, Inc., priority 2009, dated 2018)
